Earlier results, collected in patent US20070072940A1, “Use of quinol derivatives thereof for cosmetic, dietary supplement or pharmaceutical compositions and compositions thereby obtained” (priority 2005, published 2007).

Legend:
fibrin = conditions: through an action on the polymerization of fibrin
B. subtilis = conditions: in vitro
S. aureus = conditions: in vitro
[1] = test system: skin trauma such as bruising or blemishes; conditions: applied topically
[2] = results combined with previous research
[3] = test system: nutritional muscular dystrophy
[4] = test system: low density lipoprotein lipids
[5] = test system: lipid peroxidation in liposomes

Cc1c(C)c2c(c(C)c1OP(=O)(O)O)CC[C@@](C)(CCC[C@H](C)CCC[C@H](C)CCCC(C)C)O2 [DL alpha tocopherol phosphate]
anticoagulant action (fibrin): anticoagulant action
antimicrobial action on B. subtilis (B. subtilis): antimicrobial action
antimicrobial action on S. aureus (S. aureus): antimicrobial action

C/C(=C\Cc1c(C)c(O)c2ccccc2c1O)CCC[C@H](C)CCC[C@H](C)CCCC(C)C [Phylloquinol]
free radical scavenging ability, comparison (free radical): greater than that of alpha tocopherol quinol, plastoquinol, and alpha tocopherol

CC(C)=CCC/C(C)=C/CC/C(C)=C/CC/C(C)=C/CC/C(C)=C/CC/C(C)=C/CC/C(C)=C/CC/C(C)=C/CC/C(C)=C/Cc1cc(O)c(C)c(C)c1O [Plastoquinol]
free radical scavenging ability, comparison (free radical): greater than that of ubiquinol and alpha tocopherol

CC1=C(C/C=C(\C)CCC[C@H](C)CCC[C@H](C)CCCC(C)C)C(=O)c2ccccc2C1=O [Vitamin K, Phytonadione]
reduction of severity of skin trauma [1]: ability to reduce the severity of skin trauma

Cc1c(C)c(O)c(CC[C@](C)(O)CCC[C@H](C)CCC[C@H](C)CCCC(C)C)c(C)c1O [alpha tocopherol quinol]
toxicity [2]: non-toxic
free radical scavenging ability, comparison (free radical): greater than that of ubiquinol and alpha tocopherol
prevention and treatment of nutritional muscular dystrophy ([3]; rabbit, injectable and oral): could prevent and treat nutritional muscular dystrophy
prevention of creatinuria and loss of weight caused by vitamin E deficiency ([3]; vitamin E deficiency): could prevent creatinuria and loss of weight
interception of aqueous peroxyl radicals [4]: directly intercepted aqueous peroxyl radicals
reduction of lipoprotein ubiquinone to ubiquinol ([4]; associated with LDL): instantaneously reduce the lipoprotein ubiquinone to ubiquinol
quenching of alpha tocopheroxyl radicals ([4]; in oxidizing LDL): rapidly quenched alpha tocopheroxyl radicals
inhibition of radical initiated oxidation of low density lipoprotein lipids ([4]; in vitro): efficient multifunctional inhibitor
inhibition of lipid peroxidation [5]: shown to inhibit lipid peroxidation
inhibition of lipid peroxidation in liposomes, comparison ([5]; liposomes, compared with alpha tocopherol quinone): superior inhibition of lipid peroxidation in liposomes

CC1=C(C)C(=O)C(CC[C@](C)(O)CCC[C@H](C)CCC[C@H](C)CCCC(C)C)=C(C)C1=O [alpha tocopherol quinone]
toxicity [2]: non-toxic
inhibition of lipid peroxidation [5]: shown to inhibit lipid peroxidation

Menaquinol
free radical scavenging ability, comparison (free radical): greater than that of alpha tocopherol quinol, plastoquinol, and alpha tocopherol
